Measurements taken from US8497074B2, “Granin proteins as markers of heart disease” (Universitetet I Oslo, priority 2008, dated 2013).
“Also recorded” adds a separate entry of the source.

Assays:
Type in all cases: cell-based
[1] = tested on: neonatal rat cardiomyocytes; experiment: SgII gene expression in isolated neonatal cardiomyocytes after stimulation with signaling agents (qRT-PCR); details: stimulated for 24 hours, vs. PBS stimulated cells
Experimental: (§1) Neonatal rat cardiomyocytes were isolated from neonatal (1-3 days) Wistar rats (Taconic, Skensved, Denmark) as previously reported. After 24 hours starvation, the cardiomyocytes were stimulated for 24 hours with the following agents; Forskolin [1 and 10 μM], norepinephrine [100 μM], endothelin [77 ng/ml] and angiotensin II [1 μM] (all Sigma, Europe), tumor necrosis factor-α(TNF-α) [10 ng/ml] (BioSource International Camarillo, Calif., USA), interleukin-1β (IL-1β) [10 ng/ml], monocyte chemoattractant protein-1 (MCP-1) [200 ng/ml], transforming growth factor-β (TGF-β) [10 ng/ml] (all R&D Systems, Minneapolis, Minn., USA), and a C-terminal CgB peptide—CgB312-323 and secretoneurin [1, 10 and 100 ng/ml] (053-20, 047-95, Phoenix Pharmaceuticals, Burlingame, Calif., USA).
(§2) Total RNA was isolated from neonatal rat cardiomyocytes according to the protocol (RNeasy mini kit, Qiagen, Valencia, Calif., USA). Along with lysis buffer, the Mixer Mill 300 System (RETSCH, Haan, Germany) and stainless steel beads (Qiagen, Hilden, Germany) were used for mechanical disruption of the cells. RNA concentrations and quality were assessed as earlier described with the NanoDrop system and an Agilent BioAnalyzer 2100. Reverse transcription reactions were performed with iScript Select cDNA Synthesis Kit (Bio-Rad Laboratories, Inc., Hercules, Calif., USA). Gene expression was determined by qRT-PCR with pre-made TaqMan Gene Expression Assays from Applied Biosystems: SgII (Rn01400686—1), CgB (Rn01514853—1), BNP (Rn00580641—1), Rp14 (Rn00821091—1). Gene expression in stimulated cells is presented as change vs. gene expression in PBS stimulated cells (normalized vs. control). All samples were run in triplicate and Rp14 gene expression was used as an internal control.

[2] = tested on: neonatal rat cardiomyocytes; experiment: CgB gene expression in isolated neonatal cardiomyocytes after stimulation with signaling agents (qRT-PCR)
Experimental: as §1, with “factor-α (TNF-α)” for “factor-α(TNF-α)”, “peptide—CgB312-323” for “peptide—CgB312-323 and secretoneurin”, “(053-20,” for “(053-20, 047-95,”
as §2, with “Biosystems:” for “Biosystems: SgII (Rn01400686—1),”
as §1, §2

[3] = tested on: neonatal rat cardiomyocytes; experiment: BNP gene expression in isolated neonatal cardiomyocytes after stimulation with signaling agents (qRT-PCR); details: stimulated for 24 hours, vs. PBS stimulated cells
Experimental: as §1, with “factor-α (TNF-α)” for “factor-α(TNF-α)”, “peptide—CgB312-323” for “peptide—CgB312-323 and secretoneurin”, “(053-20,” for “(053-20, 047-95,”
as §2, with “Biosystems:” for “Biosystems: SgII (Rn01400686—1),”
as §1, §2

[4] = neonatal rat cardiomyocytes, stimulated for 24 hours, vs. PBS stimulated cells

Molecule	SgII gene expression increase [1] [%]	change in SgII gene expression (in words) [1]	change in BNP gene expression (in words) [3]	change in CgB gene expression (in words) [2, 4]	also measured
C=C[C@@]1(C)CC(=O)[C@]2(O)[C@@]3(C)[C@@H](O)CCC(C)(C)[C@@H]3[C@H](O)[C@H](OC(C)=O)[C@@]2(C)O1 [Forskolin]	40				CgB production (gene expression) increase [2, 4]: 60%
CC[C@H](C)[C@H](NC(=O)[C@H](CC(=O)O)NC(=O)[C@H](CC(C)C)NC(=O)[C@H](Cc1c[nH]cn1)NC(=O)[C@@H]1CSSC[C@H](N)C(=O)N[C@@H](CO)C(=O)N[C@H]2CSSC[C@H](NC(=O)[C@H](CCC(=O)O)NC(=O)[C@H](CCCCN)NC(=O)[C@H](CC(=O)O)NC(=O)[C@H](CCSC)NC(=O)[C@H](CC(C)C)NC(=O)[C@H](CO)NC(=O)[C@H](CO)NC2=O)C(=O)N[C@@H](C(C)C)C(=O)N[C@@H](Cc2ccc(O)cc2)C(=O)N[C@@H](Cc2ccccc2)C(=O)N1)C(=O)N[C@H](C(=O)N[C@@H](Cc1c[nH]c2ccccc12)C(=O)O)[C@@H](C)CC [endothelin]		no significant change	increased	no significant change	
NC[C@H](O)c1ccc(O)c(O)c1 [norepinephrine]	55				change in SgII gene expression (in words) ([1]; listed as NA): potent agents for upregulating; also recorded: increased; change in BNP gene expression (in words) ([3]; listed as NA): increased; also recorded: most powerful stimulus; also recorded: potent agents for upregulating; CgB gene expression, times upregulated ([2]; isolated cardiomyocytes, change vs. PBS stimulated cells (FIG. 8A)): 3 ×; CgB gene expression, fold increase ([2]; neonatal rat cardiomyocytes, stimulated for 24 hours, change vs. PBS stimulated cells): 3 fold; change in CgB gene expression (in words) ([2]; neonatal rat cardiomyocytes, stimulated for 24 hours, vs. PBS stimulated cells, listed as NA): upregulated; also recorded: potent agents for upregulating
angiotensin II (DRVYIHPF; Angiotensin-2; UniProt P01019 25-32, looked up)		no significant change	increased	significantly upregulated	change in CgB gene expression (in words) ([2]; neonatal rat cardiomyocytes, stimulated for 24 hours, vs. PBS stimulated cells, listed as AT II): upregulated; change in CgB gene expression (in words) ([2]; neonatal rat cardiomyocytes, stimulated for 24 hours, vs. PBS stimulated cells, listed as Angiotensin II): significantly upregulated
interleukin-1β		no significant change		no significant change	
monocyte chemoattractant protein-1		no significant change		significantly upregulated	change in CgB gene expression (in words) ([2]; neonatal rat cardiomyocytes, stimulated for 24 hours, vs. PBS stimulated cells, listed as MCP-1): upregulated
secretoneurin: 33 amino acid peptide fragment of SgII, 047-95, Phoenix Pharmaceuticals (TNEIVEEQYTPQSLATLESVFQELGKLTGPNNQ; Secretoneurin; UniProt P13521 182-214, looked up)		did not affect	did not affect	did not affect	change in SgII gene expression (in words) ([1]; listed as SgII): no significant change
transforming growth factor-β	85			significantly upregulated	change in SgII gene expression (in words) ([1]; listed as TGF-β): potent agents for upregulating; also recorded: increased; change in BNP gene expression (in words) ([3]; listed as TGF-β): increased; also recorded: potent agents for upregulating; change in CgB gene expression (in words) ([2]; neonatal rat cardiomyocytes, stimulated for 24 hours, vs. PBS stimulated cells, listed as TGF-β): upregulated; also recorded: potent agents for upregulating
tumor necrosis factor-α		no significant change		no significant change	
